According to patent publication US7238682B1, “Methods and compositions for degradation and/or inhibition of HER-family tyrosine kinases” (Sloan-Kettering Institute for Cancer Research, priority 1999, dated 2007):
Read-outs that look alike come from different tables or passages of the source.

Experiments:
Format in all cases: cell-based, human
HER2 = experiment: Induction of HER2 degradation in MCF-7 cells (immunoblotting); conditions: for IC50: MCF-7 cells, 24-hr treatment, amount of drug needed to degrade 50% of the protein, average of three experiments, read-out: IC50 (HER-2)
Protocol: (§1) The human breast cancer cell lines MCF-7 and SKBR-3 were obtained from ATCC (Rockville, Md.), and maintained in DME/F12 (1:1) supplemented with 10% heat-inactivated fetal bovine serum (Gemini Bioproducts), 2 mM glutamine, and 50 units/ml each of penicillin and streptomycin, in a humidified 5% CO2/air atmosphere at 37° C.
(§2) Polyclonal antibodies against HER2 (c-18), Raf-1 (c-12), and P13 kinase (p85) (Z-8) were purchased from Santa Cruz Biotechnology, Inc. A monoclonal antibody against estrogen receptor (clone H-151) was obtained from StressGen Biotechnology Corp. A polyclonal antibody against the β-subunit of IGF-I receptor was kindly provided by Dr. L-H, Wang (Mt. Sinai Medical Center, New York).
(§3) After exposure, cells were washed twice with ice-cold phosphate-buffered saline (PBS), collected by scraping and transferred into microcentrifuge tubes. For immunoblotting (HER2, Raf-1, ER), cells were lysed with SDS lysis buffer (50 mM Tris-HCl, pH 7.5, 2% SDS, 10% glycerol, and 1 mM DTT), boiled for 10 min, and sonicated briefly; for immunoprecipitation (IGF-IR), cells were lysed with NP40 lysis buffer (50 mM Tris-HCl, pH 7.5, 1% Nonidet P-40, 150 mM NaCl, 1 mM Na3VO4, 40 mM NaF, 1 mM phenylmethylsulfonyl fluoride (PMSF) and 10 μg/ml each of aprotinin, leupeptin and soybean trypsin inhibitor) for 20 min at 4° C. Cell lysates were cleared by centrifuging at 14,000×g for 15 min at 4° C. in a microcentrifuge; the supernatants were collected as the experimental samples. Protein concentration in each sample was determined using the BCA kit (Pierce) according to the manufacture's instructions. For detecting IGF-IR, samples were immunoprecipitated with anti-IGF-IR antibody. Immunocomplexes were collected on protein A-Sepharose beads (Pharmacia), washed three times with the lysis buffer. Samples were subjected to SDS-PAGE, electrotransferred to nitrocellulose membranes, detected using the ECL kit (Amersham) according to the manufacturer's protocol, and quantitated using the Gel Doc 1000 (Bio-Rad).

Raf-1 = experiment: Induction of Raf-1 degradation in MCF-7 cells (immunoblotting); conditions: for IC50: MCF-7 cells, 24-hr treatment, amount of drug needed to degrade 50% of the protein, average of three experiments
Protocol: as §1, §2, §3

MCF-7 cells = experiment: MCF-7 cell growth inhibition (cell counting); conditions: MCF-7 cells treated for four days, average of three experiments, read-out: IC50 (growth inh.)
Protocol: as §1
For cell growth experiments, cells were placed in 6-well tissue-culture plates (Corning) at 20,000 cells/well. Two days after plating, cells were treated with different concentrations of drugs or the vehicle DMSO (0.1%). MCF-7 cells were treated for four days; medium with the appropriate drug or vehicle was changed every 2 days; cells were trypsinized, collected and counted on a Coulter counter; IC50 for cell growth is designated as the amount of each drug needed to inhibit MCF-7 growth by 50% compared to the control vehicle.

Row | Structure (SMILES) | IC50 (HER2) [nM] | IC50 (Raf-1) [nM] | IC50 (MCF-7 cells; Homo sapiens, MCF7, 96 h) [nM] | Activity against HER2 (in words) (HER2; degradation in MCF-7 cells) | Selectivity / specificity for HER-2 over Raf-1 (HER2; degradation in MCF-7 cells, compared to GM) | Activity against Raf-1 (in words) (Raf-1; degradation in MCF-7 cells) | IC50 (MCF-7 cells) [nM]
1 | COC1C=CC=C(C)C(=O)NC2=CC(=O)C(NCCCCCCCCCNC3=C4CC(C)CC(OC)C(O)C(C)C=C(C)C(OC(N)=O)CC(OC)C=CC=C(C)C(=O)NC(=CC3=O)C4=O)=C(CC(C)CC(OC)C(O)C(C)C=C(C)C(OC(N)=O)C1)C2=O (stereo not drawn) [9 O———O] | 500 | 3800 | 700 | – | – | – | –
2 | COC1C=CC=C(C)C(=O)NC2=CC(=O)C(NCCCCCCCCCCCCNC3=C4CC(C)CC(OC)C(O)C(C)C=C(C)C(OC(N)=O)CC(OC)C=CC=C(C)C(=O)NC(=CC3=O)C4=O)=C(CC(C)CC(OC)C(O)C(C)C=C(C)C(OC(N)=O)C1)C2=O (stereo not drawn) [12 O———O] | 750 | 3500 | 700 | – | – | – | –
3 | COC1C=CC=C(C)C(=O)NC2=CC(=O)C(NCCCCN)=C(CC(C)CC(OC)C(O)C(C)C=C(C)C1OC(N)=O)C2=O (stereo not drawn) [ButylaminoGM] | 80 | 350 | – | modestly weaker than GM | not selective | modestly weaker than GM | 600
4 | COC1=C2C[C@@H](C)C[C@H](OC)[C@H](O)[C@@H](C)/C=C(\C)[C@H](OC(N)=O)[C@@H](OC)/C=C\C=C(/C)C(=O)NC(=CC1=O)C2=O [GM, Geldanamycin, reference compound] | 45 | 200 | 25 | – | – | – | –
5 | COC1C=CC=C(C)C(=O)NC2=CC(=O)C(NCCCCCCCNC3=C4CC(C)CC(OC)C(O)C(C)C=C(C)C(OC(N)=O)CC(OC)C=CC=C(C)C(=O)NC(=CC3=O)C4=O)=C(CC(C)CC(OC)C(O)C(C)C=C(C)C(OC(N)=O)C1)C2=O (stereo not drawn) [GMD-7c] | 70 | 500 | 600 | – | – | – | –
